Data taken from patent publication US20100298141A1, “SUBSTITUTED PYRIDINE N-OXIDE HERBICIDES” (E. I. DU PONT DE NEMOURS AND COMPANY, priority 2007, published 2010).

Tests used:
wild oat = experiment: Test C pre-/postemergence test; assay type: in vivo, Avena fatua
Procedure, shortened: (§1)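 Seeds were planted and treated preemergence with test chemical in a non-phytotoxic solvent mixture containing surfactant. Postemergence applications of the same formulation went onto plants 2 to 18 cm tall (1- to 4-leaf stage). A dash marks no test result.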

velvetleaf [1] = experiment: Test A pre-/postemergence greenhouse test; assay type: in vivo, Abutilon theophrasti; settings: for Plant response rating, Velvetleaf: 0 to 100 scale where 0 is no effect and 100 is complete control; for Velvetleaf plant response rating: 0 to 100 scale
Procedure, shortened: (§2)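 Pre: directed soil spray on seeded loam/sand. Post: foliar spray, plants 2–10 cm, 1–2 leaf stage, applied concurrently. Vehicle: non-phytotoxic solvent + surfactant. Greenhouse ~10 d; visual injury rating vs untreated controls.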

redroot pigweed = experiment: Test A pre-/postemergence greenhouse test; assay type: in vivo, Amaranthus retroflexus; settings: for Plant response rating, Pigweed: 0 to 100 scale where 0 is no effect and 100 is complete control; for Pigweed plant response rating: 0 to 100 scale
Procedure, shortened: as §2

wheat [2] = experiment: Test A pre-/postemergence greenhouse test; assay type: in vivo, Triticum aestivum; settings: for Plant response rating, Wheat: 0 to 100 scale where 0 is no effect and 100 is complete control; for Wheat plant response rating: 0 to 100 scale
Procedure, shortened: as §2

woolly cupgrass = experiment: Test C pre-/postemergence test; assay type: in vivo, Eriochloa villosa
Procedure, shortened: as §1

corn = experiment: Test C pre-/postemergence test; assay type: in vivo, Zea mays
Procedure, shortened: as §1

rice = experiment: Test C flooded paddy test; assay type: in vivo, Oryza sativa; settings: Flood
Procedure, shortened: (§3)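 Under a constant 3 cm flood, test compounds went directly into the paddy water. Following 13 to 15 days of greenhouse growth, treated species and controls were compared by eye.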

wheat [3] = experiment: Test C pre-/postemergence test; assay type: in vivo, Triticum aestivum
Procedure, shortened: as §1

duck salad = experiment: Test C flooded paddy test; assay type: in vivo, Heteranthera limosa; settings: Flood
Procedure, shortened: as §3

giant foxtail = experiment: Test C pre-/postemergence test; assay type: in vivo, Setaria faberii
Procedure, shortened: as §1

eastern black nightshade = experiment: Test C pre-/postemergence test; assay type: in vivo, Solanum ptycanthum
Text: Seeds of plant species selected from blackgrass (Alopecurus myosuroides), downy brome (Bromus tectorum), green foxtail (Setaria viridis), Italian ryegrass (Lolium multiflorum), wheat (Triticum aestivum), wild oat (Avena fatua), catchweed bedstraw (Galium aparine), Russian thistle (Salsola kali), […] (Cynodon dactylon), Surinam grass (Brachiaria decumbens), cocklebur (Xanthium strumarium), corn (Zea mays), crabgrass (Digitaria sanguinalis), woolly cupgrass (Eriochloa villosa), giant foxtail (Setaria faberii), Goosegrass (Eleusin indica), johnsongrass (Sorghum halepense), kochia (Kochia scoparia), lambsquarters (Chenopodium album), morningglory (Ipomoea coccinea), eastern black nightshade (Solanum ptycanthum), yellow nutsedge (Cyperus esculentus), pigweed (Amaranthus retroflexus), common ragweed (Ambrosia elation), soybean (Glycine max), common (oilseed) sunflower (Helianthus annuus), and velvetleaf (Abutilon theophrasti) were planted and treated preemergence with test chemicals formulated in a non-phytotoxic solvent mixture which included a surfactant. At the same time, plants selected from these crop and weed species and also winter barley (Hordeum vulgare), canarygrass (Phalaris minor), and chickweed (Stellaria media) were treated with postemergence applications of some of the test chemicals formulated in the same manner. Plants ranged in height from 2 to 18 cm (1- to 4-leaf stage) for postemergence treatments. […] At time of treatment, test pots were flooded to 3 cm above the soil surface, treated by application of test compounds directly to the paddy water, and then maintained at that water depth for the duration of the test. […] A dash (-) response means no test result.

velvetleaf [4] = experiment: Test C pre-/postemergence test; assay type: in vivo, Abutilon theophrasti
Procedure, shortened: as §1

yellow nutsedge = experiment: Test C pre-/postemergence test; assay type: in vivo, Cyperus esculentus
Procedure, shortened: as §1

morningglory = experiment: Test C pre-/postemergence test; assay type: in vivo, Ipomoea coccinea
Procedure, shortened: as §1

downy brome = experiment: Test C pre-/postemergence test; assay type: in vivo, Bromus tectorum
Procedure, shortened: as §1

johnsongrass = experiment: Test C pre-/postemergence test; assay type: in vivo, Sorghum halepense
Procedure, shortened: as §1

[5] = 62 g ai/ha, Preemergence, scale 0 to 100
[6] = 125 g ai/ha, preemergence, scale 0 (no effect) to 100 (complete control)
[7] = Preemergence, 31 g ai/ha, scale 0 to 100 (0 no effect, 100 complete control)
[8] = preemergence, 250 g ai/ha, scale 0 (no effect) to 100 (complete control)
[9] = Postemergence, 500 g ai/ha, 0 is no effect, 100 is complete control
[10] = Preemergence, 125 g ai/ha, 0 no effect, 100 complete control
[11] = 62 g ai/ha, scale 0 to 100 (0 no effect, 100 complete control)
[12] = 250 g ai/ha, scale 0 to 100, 0 no effect, 100 complete control, 13 to 15 days

Cn1nc(OC(F)F)c(CS(=O)(=O)c2cccc[n+]2[O-])c1C(F)(F)F [Compound 80]
Oat, Wild plant response rating (wild oat; [5]): 85 | Oat, Wild plant response rating (wild oat; [6]): 95 | Plant response rating, Oat, Wild (wild oat; [7]): 70 | Oat, Wild plant response rating (wild oat; [8]): 100 | Plant response rating, Velvetleaf (velvetleaf [1]; Postemergence, 125 g ai/ha): 0 | Velvetleaf plant response rating (velvetleaf [1]; [9]): 60 | Velvetleaf plant response rating (velvetleaf [1]; [10]): 0 | Plant response rating, Velvetleaf (velvetleaf [1]; Preemergence, 500 g ai/ha): 70 | Plant response rating, Pigweed (redroot pigweed; Postemergence, 125 g ai/ha): 10 | Pigweed plant response rating (redroot pigweed; [9]): 40 | Pigweed plant response rating (redroot pigweed; [10]): 70 | Plant response rating, Pigweed (redroot pigweed; Preemergence, 500 g ai/ha): 90 | Plant response rating, Wheat (wheat [2]; Postemergence, 125 g ai/ha): 30 | Wheat plant response rating (wheat [2]; [9]): 60 | Wheat plant response rating (wheat [2]; [10]): 10 | Plant response rating, Wheat (wheat [2]; Preemergence, 500 g ai/ha): 80 | Cupgrass, Woolly plant response rating (woolly cupgrass; [5]): 100 | Cupgrass, Woolly plant response rating (woolly cupgrass; [6]): 100 | Plant response rating, Cupgrass, Woolly (woolly cupgrass; [7]): 100 | Cupgrass, Woolly plant response rating (woolly cupgrass; [8]): 100 | Corn plant response rating (corn; [5]): 35 | Corn plant response rating (corn; [6]): 90 | Plant response rating, Corn (corn; [7]): 30 | Corn plant response rating (corn; [8]): 98 | Plant response rating, Rice (rice; [11]): 0 | Plant response rating, Rice (rice; [12]): 50 | Wheat plant response rating (wheat [3]; [5]): 45 | Wheat plant response rating (wheat [3]; [6]): 65 | Plant response rating, Wheat (wheat [3]; [7]): 10 | Wheat plant response rating (wheat [3]; [8]): 80 | Plant response rating, Ducksalad (duck salad; [11]): 0 | Plant response rating, Ducksalad (duck salad; [12]): 85 | Foxtail, Giant plant response rating (giant foxtail; [5]): 90 | Foxtail, Giant plant response rating (giant foxtail; [6]): 98 | Plant response rating, Foxtail, Giant (giant foxtail; [7]): 80 | Foxtail, Giant plant response rating (giant foxtail; [8]): 100 | Nightshade plant response rating (eastern black nightshade; [5]): 80 | Plant response rating, Nightshade (eastern black nightshade; [7]): 50 | Nightshade plant response rating (eastern black nightshade; [8]): 90 | Velvetleaf plant response rating (velvetleaf [4]; [5]): 0 | Velvetleaf plant response rating (velvetleaf [4]; [6]): 60 | Plant response rating, Velvetleaf (velvetleaf [4]; [7]): 0 | Velvetleaf plant response rating (velvetleaf [4]; [8]): 65 | Nutsedge, Yellow plant response rating (yellow nutsedge; [5]): 75 | Nutsedge, Yellow plant response rating (yellow nutsedge; [6]): 85 | Plant response rating, Nutsedge, Yellow (yellow nutsedge; [7]): 45 | Nutsedge, Yellow plant response rating (yellow nutsedge; [8]): 95 | Morningglory plant response rating (morningglory; [6]): 100 | Plant response rating, Morningglory (morningglory; [7]): 10 | Bromegrass, Downy plant response rating (downy brome; [5]): 40 | Bromegrass, Downy plant response rating (downy brome; [6]): 60 | Plant response rating, Bromegrass, Downy (downy brome; [7]): 40 | Bromegrass, Downy plant response rating (downy brome; [8]): 95 | Johnsongrass plant response rating (johnsongrass; [5]): 85 | Johnsongrass plant response rating (johnsongrass; [6]): 90 | Plant response rating, Johnsongrass (johnsongrass; [7]): 85 | Johnsongrass plant response rating (johnsongrass; [8]): 100
